US10259810B2, “N-sulfonylated pyrazolo[3,4-b]pyridin-6-carboxamides and method of use” (AbbVie S.à.r.l., priority 2015, dated 2019)

How the values were obtained:
Assay type in all cases: cell-based
ΔF508-CFTR [1] = target: T1, ΔF508-CFTR (Homo sapiens, UniProt P13569, DEL508-508); experiment: CFTR cell surface levels using HRP-tagged ΔF508-CFTR expressing CFBE cells, in the presence of a co-corrector; conditions: HRP-tagged ΔF508-CFTR CFBE cells, in the presence of 3 μM co-corrector; for EC50: read-out: EC50
T1 construct: host or cells: CFBE41o-, doxycycline-inducible
Outline: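 Chemiluminescent read-out of surface HRP (15 min, dark) after PBS washes. Activity is normalized as 100×(sample−DMSO)/(3 μM co-corrector alone−DMSO).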

CFTR ΔF508 = target: T2, CFTR ΔF508 (Homo sapiens, UniProt P13569, DEL508-508); experiment: Chronic TECC assay, primary bronchial epithelial cells of CF patients homozygous for CFTR ΔF508 (corrector, co-corrector and potentiator); conditions: chronic TECC, AUC = full area under the curve upon forskolin stimulation; for EC50: read-out: EC50 (nM) (AUC**); for % Activity at 1 μM (AUC**): test compound at 1 μM
T2 construct: bronchial epithelial cells isolated from CF patients homozygous for the CFTR ΔF508 mutation; McGill University; Asterand; University of North Carolina hAEC-CF; host or cells: primary human bronchial epithelial cells from CF patients homozygous for ΔF508, differentiated at air-liquid interface
Outline: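 Primary bronchial epithelial cells from ΔF508-homozygous CF patients on collagen IV-coated Transwells were chronically treated with test compound plus corrector and potentiator, which were re-added before recording. Ieq was derived from PD and Rt in NaCl-Ringer, pH 7.4, at 37° C, with apical amiloride and bilateral forskolin, recorded every 2 min over 20 min. Ieq increase was normalized to controls, and EC50 was taken from per-well concentrations.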

ΔF508-CFTR [2] = target: T1, ΔF508-CFTR; experiment: CFTR cell surface levels using HRP-tagged ΔF508-CFTR expressing CFBE cells, intrinsic corrector capacity; parameters: % Activation: concentration or dose not given beside the values; conditions: HRP-tagged ΔF508-CFTR expressing CFBE41o- cells, compound alone (intrinsic corrector capacity), 20 hours at 33° C.; for EC50: read-out: EC50
Outline: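 Surface ΔF508-CFTR was measured as HRP chemiluminescence from an extracellular-loop-4 tag, expressed as percent activity between DMSO and a […] corrector control.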

T1 sequence (P13569 with tags, fused parts or gaps DEL508-508): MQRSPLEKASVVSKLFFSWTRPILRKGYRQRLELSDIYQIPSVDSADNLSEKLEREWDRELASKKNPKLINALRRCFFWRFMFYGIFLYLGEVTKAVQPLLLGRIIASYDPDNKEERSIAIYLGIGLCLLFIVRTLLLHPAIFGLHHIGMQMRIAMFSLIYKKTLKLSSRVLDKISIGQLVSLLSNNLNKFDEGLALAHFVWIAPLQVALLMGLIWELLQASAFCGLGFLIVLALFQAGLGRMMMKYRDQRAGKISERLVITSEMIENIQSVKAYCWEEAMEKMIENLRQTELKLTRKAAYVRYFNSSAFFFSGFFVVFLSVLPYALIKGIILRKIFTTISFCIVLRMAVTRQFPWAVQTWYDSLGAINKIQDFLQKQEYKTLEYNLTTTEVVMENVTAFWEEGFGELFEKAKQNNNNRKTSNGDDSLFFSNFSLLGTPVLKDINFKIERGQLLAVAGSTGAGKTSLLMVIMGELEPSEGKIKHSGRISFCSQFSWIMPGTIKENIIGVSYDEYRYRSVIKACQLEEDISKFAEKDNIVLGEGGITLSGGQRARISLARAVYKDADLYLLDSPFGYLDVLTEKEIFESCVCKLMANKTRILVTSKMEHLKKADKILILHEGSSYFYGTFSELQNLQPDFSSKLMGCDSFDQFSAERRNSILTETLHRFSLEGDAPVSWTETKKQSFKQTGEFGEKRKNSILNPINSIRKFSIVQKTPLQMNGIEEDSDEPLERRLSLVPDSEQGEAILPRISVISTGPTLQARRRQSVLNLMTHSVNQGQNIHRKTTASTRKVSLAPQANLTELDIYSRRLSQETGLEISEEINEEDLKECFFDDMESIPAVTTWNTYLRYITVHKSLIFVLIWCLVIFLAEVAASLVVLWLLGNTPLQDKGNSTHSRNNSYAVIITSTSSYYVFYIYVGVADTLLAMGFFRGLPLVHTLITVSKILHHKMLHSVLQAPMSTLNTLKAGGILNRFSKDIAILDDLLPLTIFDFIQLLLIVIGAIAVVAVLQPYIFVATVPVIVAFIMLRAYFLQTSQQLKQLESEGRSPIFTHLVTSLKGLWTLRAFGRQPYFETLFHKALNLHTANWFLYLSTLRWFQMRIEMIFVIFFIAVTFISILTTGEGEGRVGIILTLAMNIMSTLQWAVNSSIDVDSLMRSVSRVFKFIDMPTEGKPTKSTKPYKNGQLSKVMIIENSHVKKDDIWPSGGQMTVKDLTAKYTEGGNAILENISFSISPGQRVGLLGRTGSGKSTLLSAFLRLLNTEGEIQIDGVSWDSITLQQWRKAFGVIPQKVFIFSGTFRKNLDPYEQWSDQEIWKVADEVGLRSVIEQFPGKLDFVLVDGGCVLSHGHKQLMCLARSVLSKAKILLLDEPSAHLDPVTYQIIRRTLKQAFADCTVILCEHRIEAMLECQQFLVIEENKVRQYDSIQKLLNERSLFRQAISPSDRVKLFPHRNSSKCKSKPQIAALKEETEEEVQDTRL
T2 sequence (P13569 with tags, fused parts or gaps DEL508-508): as above

CC(C)c1nn(-c2cccc(N(C)C)c2)c2nc(C(=O)NS(C)(=O)=O)cc(N3CCC(C#N)CC3)c12 [Compound 160, 4-(4-cyanopiperidin-1-yl)-1-[3-(dimethylamino)phenyl]-N-(methanesulfonyl)-3-(propan-2-yl)-1H-pyrazolo[3,4-b]pyridine-6-carboxamide]
% Activation (ΔF508-CFTR [1]): 490.4% | EC50 (ΔF508-CFTR [1]): 202 nM | EC50 (CFTR ΔF508): 160 nM | % Activity at 1 μM (AUC**) (CFTR ΔF508): 190% | % Activation (ΔF508-CFTR [2]): 285.57% | EC50 (ΔF508-CFTR [2]): 309 nM

COC1CCN(c2cc(C(=O)NS(C)(=O)=O)nc3c2c(C(C)C)nn3-c2ccc(F)cc2)CC1 [Compound 167, 1-(4-fluorophenyl)-N-(methanesulfonyl)-4-(4-methoxypiperidin-1-yl)-3-(propan-2-yl)-1H-pyrazolo[3,4-b]pyridine-6-carboxamide]
% Activation (ΔF508-CFTR [1]): 429.4% | EC50 (ΔF508-CFTR [1]): 81.8 nM | EC50 (CFTR ΔF508): 32 nM | % Activity at 1 μM (AUC**) (CFTR ΔF508): 260% | % Activation (ΔF508-CFTR [2]): 260.6% | EC50 (ΔF508-CFTR [2]): 313 nM

COCC1CCN(c2cc(C(=O)NS(C)(=O)=O)nc3c2c(C(C)C)nn3-c2ccc(F)cc2)CC1 [Compound 168, 1-(4-fluorophenyl)-N-(methanesulfonyl)-4-[4-(methoxymethyl)piperidin-1-yl]-3-(propan-2-yl)-1H-pyrazolo[3,4-b]pyridine-6-carboxamide]
% Activation (ΔF508-CFTR [1]): 581.55% | EC50 (ΔF508-CFTR [1]): 410 nM | EC50 (CFTR ΔF508): 38.2 nM | % Activity at 1 μM (AUC**) (CFTR ΔF508): 282.45% | % Activation (ΔF508-CFTR [2]): 399.2% | EC50 (ΔF508-CFTR [2]): 338 nM

CC(C)c1nn(-c2ccnc(N3CCCC3)c2)c2nc(C(=O)NS(C)(=O)=O)cc(-c3ccc(N4CCC(C#N)CC4)cc3)c12 [Compound 169, 4-[4-(4-cyanopiperidin-1-yl)phenyl]-N-(methanesulfonyl)-3-(propan-2-yl)-1-[2-(pyrrolidin-1-yl)pyridin-4-yl]-1H-pyrazolo[3,4-b]pyridine-6-carboxamide]
% Activation (ΔF508-CFTR [1]): 519.3% | EC50 (ΔF508-CFTR [1]): 284 nM | EC50 (CFTR ΔF508): 2.1 nM | % Activity at 1 μM (AUC**) (CFTR ΔF508): 210% | % Activation (ΔF508-CFTR [2]): 344.25% | EC50 (ΔF508-CFTR [2]): 426 nM

CC(C)c1nn(-c2ccc(F)cc2)c2nc(C(=O)NS(C)(=O)=O)cc(N3CCC4(CCO4)CC3)c12 [Compound 177, 1-(4-fluorophenyl)-N-(methanesulfonyl)-4-(1-oxa-7-azaspiro[3.5]nonan-7-yl)-3-(propan-2-yl)-1H-pyrazolo[3,4-b]pyridine-6-carboxamide]
% Activation (ΔF508-CFTR [1]): 263.9% | EC50 (ΔF508-CFTR [1]): 385 nM | EC50 (CFTR ΔF508): > 100 nM | % Activity at 1 μM (AUC**) (CFTR ΔF508): 419.90% | % Activation (ΔF508-CFTR [2]): 99.405% | EC50 (ΔF508-CFTR [2]): 830 nM

COCC1CCN(c2cc(C(=O)NS(C)(=O)=O)nc3c2c(C2CCC2)nn3-c2ccccc2)CC1 [Compound 185, 3-cyclobutyl-N-(methanesulfonyl)-4-[4-(methoxymethyl)piperidin-1-yl]-1-phenyl-1H-pyrazolo[3,4-b]pyridine-6-carboxamide]
% Activation (ΔF508-CFTR [1]): 546.7% | EC50 (ΔF508-CFTR [1]): 145 nM | EC50 (CFTR ΔF508): 45.4 nM | % Activation (ΔF508-CFTR [2]): 331.6% | EC50 (ΔF508-CFTR [2]): 241 nM

COC1CCN(c2cc(C(=O)NS(C)(=O)=O)nc3c2c(C(C)C)nn3-c2ccnc(N3CCOCC3)c2)CC1 [Compound 187, N-(methanesulfonyl)-4-(4-methoxypiperidin-1-yl)-1-[2-(morpholin-4-yl)pyridin-4-yl]-3-(propan-2-yl)-1H-pyrazolo[3,4-b]pyridine-6-carboxamide]
% Activation (ΔF508-CFTR [1]): 308.87% | EC50 (ΔF508-CFTR [1]): 69.3 nM | EC50 (CFTR ΔF508): > 1000 nM | % Activity at 1 μM (AUC**) (CFTR ΔF508): 180% | % Activation (ΔF508-CFTR [2]): 160% | EC50 (ΔF508-CFTR [2]): 223 nM

COC1CCN(c2cc(C(=O)NS(C)(=O)=O)nc3c2c(C(C)C)nn3-c2ccnc(N3CCCC3)c2)CC1 [Compound 188, N-(methanesulfonyl)-4-(4-methoxypiperidin-1-yl)-3-(propan-2-yl)-1-[2-(pyrrolidin-1-yl)pyridin-4-yl]-1H-pyrazolo[3,4-b]pyridine-6-carboxamide]
% Activation (ΔF508-CFTR [1]): 405.37% | EC50 (ΔF508-CFTR [1]): 160 nM | % Activity at 1 μM (AUC**) (CFTR ΔF508): 257.3% | % Activation (ΔF508-CFTR [2]): 214.93% | EC50 (ΔF508-CFTR [2]): 274 nM
